Data from patent US20170157251A1, “Bi-Specific Monovalent Diabodies That are Capable of Binding CD19 and CD3, and Uses Thereof” (MacroGenics, Inc., priority 2015, published 2017).

Columns and labels:
[1] = tested on: Raji/GF cells; test: Redirected killing of target tumor cells using human T cells, Raji/GF; format: cell-based; conditions: HBL-2, Raji/GF, Jeko-1; E:T 10:1
[2] = tested on: CD20+ B cells; test: Autologous B cell depletion in human PBMCs; format: cell-based
Excerpt: (§1) Potential differences in CD19 expression levels between human and cynomolgus monkey B cells may be another variable factor contributing to the apparent difference in potency.

[3] = tested on: CD20+ B cells; test: Autologous B cell depletion in cynomolgus monkey PBMCs; format: cell-based
Excerpt: as §1

[4] = tested on: human T cells; test: Cytokine release by human T cells in the presence of Raji/GF target cells (ELISA); format: cell-based; conditions: co-incubation with Raji/GF target cells
[5] = tested on: human CD4+ and CD8+ T cells; test: Human T cell activation (CD25, CD69) during redirected killing of Raji/GF cells; format: cell-based; conditions: Raji/GF target cells
Excerpt: (§2) The effect on T cells during DART-A-mediated redirected target cell (Raji/GF cells) lysis was characterized by evaluating expression of the T cell activation markers CD69 and CD25.

[6] = tested on: cynomolgus monkey CD4+ and CD8+ T cells; test: Cynomolgus monkey T cell activation (CD25, CD69) during redirected killing of Raji/GF cells; format: cell-based; conditions: Raji/GF target cells
Excerpt: as §2

[7] = tested on: human T cells with JIMT-1 cells; test: Human T cell activation in the presence of CD19-negative JIMT-1 cells; format: cell-based
[8] = tested on: human CD8+ and CD4+ T cells; test: Intracellular granzyme B and perforin in T cells in CTL assay; format: cell-based; conditions: 24 hours, Raji/GF target cells, E:T 10:1
Excerpt: Of note, the upregulation of granzyme B (FIG. 15A) and perforin (FIG. 15B) was higher in CD8+ T cells compared with CD4+ T cells, consistent with the expected higher CTL potency of CD8+ T cells.

[9] = tested on: CFSE-labeled human T cells; test: Proliferation of CFSE-labeled human T cells co-cultured with HBL-2 target cells; format: cell-based; conditions: 200 ng/mL, E:T 10:1, 72 hours
Method: The expansion of T cells during effector:target cell co-engagement by […] was also evaluated, given that proliferation concomitant with T cell activation has been previously reported. […] Proliferation of CFSE-labeled T cells was monitored by levels of CFSE dilution over time by FACS analysis (FIGS. 16A-16B).

[10] = tested on: HBL-2 tumor cells; test: HBL-2 co-mix xenograft with activated human T cells; format: in vivo, NOD/SCID mice; conditions: by Day 13
Excerpt: (§3) In both studies, human T cells and tumor cells (HBL-2 or Raji) were combined at a ratio of 1:5 (1×10^6 and 5×10^6 cells, respectively) and injected SC into mice on Day 0.

[11] = tested on: Raji tumor cells; test: Raji co-mix xenograft with activated human T cells; format: in vivo, NOD/SCID mice; conditions: end of the study (Day 28)
Excerpt: as §3

[12] = tested on: HBL-2 tumor cells; test: Established HBL-2 xenograft model with human PBMCs; format: in vivo, NSG B2m−/− mice
Excerpt: Mice were implanted with HBL-2 tumor cells (5×10^6 cells) intradermally (ID) on Day 0 followed by intraperitoneal (IP) injection of PBMCs (5×10^7 cells) on Day 4.
However, prior to the third (Study Day 24) and fourth (Study Day 28) doses, the tumor volumes were 1469±162 and 848±74 mm^3, respectively, representing a 36% and 63%, respectively, decrease in tumor volume with respect to the peak volume recorded on Study Day 21 (FIG. 19B). The tumors continued to decrease in size to the extent that on Day 42, the average tumor volume was 248±52 mm^3, an 89% decrease in the tumor volume (FIG. 19B).

[13] = Human FcRn transgenic mouse pharmacokinetic study; format: in vivo; conditions: human FcRn transgenic mice
Method: Three human mAbs were also evaluated in same test system for comparison and had terminal half-lives ranging from 58.7 to 102.7 hours.

[14] = tested on: CLL malignant B cells (CD20+/CD5+); test: Autologous depletion of malignant B cells in CLL primary patient PBMCs; format: cell-based, human
Method: Due to the limited patient sample availability, only 2 concentrations (50 ng/mL and 200 ng/mL) were tested. The percentages of CLL malignant B cells (CD19+/CD5+ or CD20+/CD5+) and T cells (CD19−/CD5+ or CD4+ and CD8+) were measured by flow cytometry prior to treatment and following treatment for 3 and 6 days.

[15] = tested on: Raji.luc lymphoma cells; test: Disseminated Raji.luc model in human PBMC-reconstituted mice, early treatment; conditions: 12 doses
[16] = tested on: Raji.luc cells; test: Disseminated Raji.luc model in human PBMC-reconstituted mice, established tumor; conditions: treatment from Study Day 15, 9 doses; DART-A 0.16 μg/kg to 0.5 mg/kg, Control DART 1 0.1 mg/kg

## Control DART 1: control DART capable of binding to fluorescein and CD3 [reference compound]
[1]
  T cell redirected killing of target cells: did not mediate T cell redirected killing of target cells
[2]
  CD20+ B cell depletion: no B cell depletion was observed
[3]
  CD20+ B cell depletion: no B cell depletion was observed
[4]
  cytokine production: did not result in any detectable cytokine production
[5]
  T cell activation markers CD25 and CD69: did not mediate induction of T cell activation markers
[6]
  T cell activation markers CD25 and CD69: did not mediate induction of T cell activation markers
[7]
  T cell activation: fail to mediate human T cell activation
[8]
  granzyme B and perforin levels in CD8+ and CD4+ T cells: no upregulation of granzyme B or perforin was observed
[9]
  cells proliferating (CFSE dilution): no proliferation of CFSE-labeled T cells was observed
[10]
  average tumor volume: approximately 1000 mm^3
[11]
  average tumor volume: 2968.2±200.0 mm3
[12]; Day 21 (2nd dose), treatment from Day 17, DART-A 0.5 mg/kg IV
  average tumor volume: 1185.6±138.7 mm^3
[12]; Day 24 (3rd dose), treatment from Day 17
  average tumor volume: 2623.7±351.5 mm^3
[13]
  terminal half-life: 92.1 h
[14]; Day 3, 50 ng/mL
  CD4+: 3.08%
  CD8+: 1.81%
[14]; Day 3, 50 ng/mL, E:T = 1:23
  CD20+/CD5+: 73.5%
[14]; Day 3, 200 ng/mL
  CD4+: 3.23%
  CD8+: 1.62%
  CD20+/CD5+: 72.9%
[14]; Day 6, 50 ng/mL
  CD4+: 3.54%
  CD8+: 2.26%
  CD20+/CD5+: 74.9%
  CD25+/CD4+: 1.4%
  CD25+/CD8+: 20.6%
[14]; Day 6, 200 ng/mL
  CD4+: 2.79%
  CD8+: 1.82%
  CD20+/CD5+: 73.4%
  CD25+/CD4+: 1.4%
  CD25+/CD8+: 14.3%
[14]; through Day 6
  B cell killing or upregulation of CD25: no B cell killing or upregulation of CD25 was observed
[15]; 0.16 μg/kg to 0.5 mg/kg
  efficacy in dose-range finding study: rapid progression of Raji.luc tumor growth
[15]; 0.5 mg/kg IV
  Study Day by which all mice died or were humanely sacrificed: ≤ 53 Study Day
[16]
  tumor burden / tumor progression, dose-range finding: slight delay of tumor progression
